Consider 8 compounds from patent US12522628B2, “Aryl glucoside derivative and use thereof in drug” (SHANGHAI ZHEYE BIOTECHNOLOGY CO. LTD., priority 2020, dated 2026).

Series [1] can be described thus: Lipid solubility and water solubility compared with Example 5. It counts as physicochemical.
Series [2] is described as follows: Pharmacokinetic study in rats. It is filed as in vivo, SD rats. Conditions: 10 mg/kg, oral gavage; for bioavailability: male, SD, rat, plasma, po, read-out: Absolute Bioavailability(F %). The method, then:
• Experimental animals: SPF male SD rats; • Dosage and method of administration: 10 mg/kg, oral gavage.
Research compound: Dapagliflozin, the compound of Example 5, the compound of Example 7, the compound of Comparative Example 6; • Test method: Before administration (0), and 1, 4, 8, and 24 hours after administration, 0.2 ml of blood was collected from orbital venous plexus, anticoagulated with heparin, and plasma was collected.

Series [3] has as its target T1, SGLT1 (Homo sapiens, UniProt P13866).
T1 sequence (P13866 1-664): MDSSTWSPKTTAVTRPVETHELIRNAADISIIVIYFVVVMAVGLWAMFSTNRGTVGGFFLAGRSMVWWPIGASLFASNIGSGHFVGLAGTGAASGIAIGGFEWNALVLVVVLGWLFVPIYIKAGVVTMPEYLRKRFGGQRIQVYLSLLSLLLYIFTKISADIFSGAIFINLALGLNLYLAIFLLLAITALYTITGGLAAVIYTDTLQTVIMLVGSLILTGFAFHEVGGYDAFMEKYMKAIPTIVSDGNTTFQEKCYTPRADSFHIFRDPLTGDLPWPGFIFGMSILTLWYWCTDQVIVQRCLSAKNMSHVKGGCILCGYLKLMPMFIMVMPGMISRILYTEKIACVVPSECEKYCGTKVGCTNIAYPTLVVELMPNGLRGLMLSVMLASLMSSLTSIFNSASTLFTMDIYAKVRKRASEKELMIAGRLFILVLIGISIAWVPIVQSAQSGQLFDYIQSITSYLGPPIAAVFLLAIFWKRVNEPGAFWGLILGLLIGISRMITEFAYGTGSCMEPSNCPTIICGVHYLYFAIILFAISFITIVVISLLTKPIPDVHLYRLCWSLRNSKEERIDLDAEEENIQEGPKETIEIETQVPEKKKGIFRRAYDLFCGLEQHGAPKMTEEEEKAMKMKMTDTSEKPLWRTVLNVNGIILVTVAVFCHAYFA
The series can be described thus: HSGLT1 inhibitor activity experiment: 2-NBDG uptake by HEK293 cells stably expressing human SGLT1. It is filed as cell-based. The conditions noted are these: for IC50: 2-NBDG uptake, HEK293 stably expressing human SGLT1, read-out: SGLT1 Inhibitory Activity. On the set-up: expressed in transfected cells; host or cells: HEK293. Here is the method:
Inhibitory activity testing was performed with reference to a similar method described in document (Acta Pharmaceutica Sinica 2017, 52(6):897-903; Nature Protocols (2007), 2(3), 753-762; Journal of Biochemical and Biophysical Methods (2005), 64(3), 207-215; Diabetes Technology & Therapeutics (2011), 13(7), 743-775).
In this experiment, the in vitro activity assay was evaluated using the uptake of 2-NBDG (2-Deoxy-2-[(7-nitro-2,1,3-benzoxadiazol-4-yl)amino]-D-glucose, CAS NO: 186689-07-6) by human embryonic kidney epithelial cells (HEK293, stably expressing human SGLT1), and the SGLT1 inhibitory activity of the target compound was determined by measuring its half-maximal inhibitory concentration (IC50).
HEK293 cells that can stably express human SGLT1 gene were inoculated into a 96-well clear-bottom black plates containing DMEM medium. The cells were incubated at 37° C., 5% CO2in a cell incubator. The medium in the 96-well plate was aspirated, and the plate was treated with low-glucose serum-free DMEM medium, and washed once with non-specific uptake buffer and once with Na^+-dependent uptake buffer. Uptake buffer containing test compound was added to each well of cells, followed by uptake buffer containing 2-NBDG for glucose uptake, and the cell plate was incubated at 37° C., 5% CO2. The compounds were gradiently diluted. The uptake reaction was stopped by removing the culture medium, and after washing the cells with ice-cold uptake buffer, the washing solution was removed. The cells were lysed by adding NaOH, and the content of 2-NBDG in the cells was detected by a fluorescence microplate reader. The protein concentration of the lysate was measured by BCA method, the uptake of 2-NBDG was quantified by fluorescence intensity/protein content, and the obtained data were analyzed using GraphPad Prism to determine the median inhibitory concentration (IC50) of the compound to be tested.

Series [4] in a line: Observation of defecation (loose stools) in rats during OGTT study. It counts as in vivo, SD rats. The conditions noted are these: 0.012 mg/kg oral gavage, within 48 hours before and after the experiment. The method, then:
(§1) Experimental process: the animals were fed a normal diet with consecutive administration for 14 days, and the glucose tolerance test was performed on day 15, blood glucose was detected before administration (−30 min), before giving glucose (0 min), and 10, 30, 60, and 120 min after giving glucose solution, and the defecation of animals was observed.

Series [5] relates to blood glucose. The series can be described thus: Oral glucose tolerance test (OGTT) after continuous administration in rats for 14 days. It counts as in vivo, SD rats. Conditions: 0.012 mg/kg oral gavage, OGTT on day 15. The method, then:
• Experimental animals: SPF male SD rats; • Compound preparation: an appropriate amount of the compounds of Example 2, Example 3, and Example 5 were weighed, and uniformly suspended with an appropriate amount of 0.5% CMC-Na solution; • Preparation of glucose solution: an appropriate amount of glucose powder was weighed and dissolved with an appropriate amount of pure water; • Dosage and method of administration: 0.012 mg/kg, oral gavage.
as §1

The target of series [6] is T1, SGLT1. The series can be described thus: SGLT1 Inhibitor Activity Experiment 1. It counts as cell-based. Here is the method:
The inhibitory activity of SGLT1 was tested with reference to the method described in document (Journal of Medicinal Chemistry 2017, 60, 710-721, Discovery of LX2761, a Sodium-Dependent Glucose Cotransporter 1 (SGLT1) Inhibitor Restricted to the Intestinal Lumen, for the Treatment of Diabetes).

As for `CS[C@H]1O[C@@H](c2ccc(C)c(Cc3ccc(CCCC(=O)NCCN(C)Cc4cn(C5CC5)nn4)cc3)c2)[C@H](O)[C@@H](O)[C@@H]1O`, in series [1], the “lipid solubility relative to Example 5” value is given as “better lipid solubility”; the “water solubility relative to Example 5” value is “better lipid solubility and water solubility”.

For `CCOc1ccc(Cc2cc([C@@H]3O[C@H](CO)[C@@H](O)[C@H](O)[C@H]3O)ccc2Cl)cc1` [Dapagliflozin, reference compound], in series [2], the “absorption in vivo after oral administration (in words)” value was “absorbed into the blood” and the bioavailability (commonly the share of a dose that reaches the circulation, judged against a reference dose that is usually intravenous) came to 73%.

Regarding `CS[C@H]1O[C@@H](c2ccc(C)c(Cc3ccc(CCCC(=O)NCCN4CCN(C)CC4)cc3)c2)[C@H](O)[C@@H](O)[C@@H]1O` [Example 2], in series [3], the “activity of inhibiting SGLT1 (in words)” value is listed as “significant activity of inhibiting SGLT1” and the IC50 stood at 0.97 nM. The “loose stools in experimental animals” value in series [4] is recorded as “no loose stools were observed”. Besides, in series [5], the “blood sugar level of rats in OGTT” value is reported as “significantly reduce the blood sugar level”.

Regarding `CS[C@H]1O[C@@H](c2ccc(C)c(Cc3ccc(CCCC(=O)NCCN4CCCCC4)cc3)c2)[C@H](O)[C@@H](O)[C@@H]1O` [Example 3], in series [3], the “activity of inhibiting SGLT1 (in words)” value is recorded as “significant activity of inhibiting SGLT1” and the IC50 was found to be 0.83 nM. Also, the “loose stools in experimental animals” value in series [4] was “no loose stools were observed”. Further, the “blood sugar level of rats in OGTT” value in series [5] is given as “significantly reduce the blood sugar level”.

As for `CS[C@H]1O[C@@H](c2ccc(C)c(Cc3ccc(CCCC(=O)NCCN(C)Cc4ccccc4)cc3)c2)[C@H](O)[C@@H](O)[C@@H]1O` [Example 4], in series [3], the “activity of inhibiting SGLT1 (in words)” value is on record as “significant activity of inhibiting SGLT1” and the IC50 was determined as 1.01 nM.

As to `C#CCN(C)CCNC(=O)CCOc1ccc(Cc2cc([C@@H]3O[C@H](SC)[C@@H](O)[C@H](O)[C@H]3O)ccc2C)cc1` [Example 6], in series [6], the IC50 was less than 50 nM.

With `C#CCN(C)CCNC(=O)CCOCc1ccc(Cc2cc([C@@H]3O[C@H](SC)[C@@H](O)[C@H](O)[C@H]3O)ccc2C)cc1` [Example 7], in series [2], the “absorption in vivo after oral administration (in words)” value is “almost no absorption in vivo”, the “detection in vivo after oral administration (in words)” value is reported as “hardly detected in vivo” and the bioavailability is less than 1.5%. This compound gave an IC50 in series [6] of less than 50 nM.

Consider `C#CCN(C)CCNC(=O)C/C=C/c1ccc(Cc2cc([C@@H]3O[C@H](SC)[C@@H](O)[C@H](O)[C@H]3O)ccc2C)cc1` [Example 8], for which, in series [6], the IC50 was less than 50 nM.
